Data published in ChEMBL document CHEMBL4428037 (J Med Chem, 2016).
The source made the active and inactive calls. No cut-off for these calls is given here.

Tests used:
Tubulin (Sus scrofa) [1] = target: T1, Tubulin (Sus scrofa) (UniProt P02554+P02550); assay: Displacement of [3H]colchicine from biotinylated porcine tubulin at 5 uM incubated for 2 hrs by competition scintillation proximity; assay type: protein assay
Tubulin = Tubulin (Sus scrofa, UniProt P02554+P02550); assay: (§1) Inhibition of porcine brain tubulin polymerization incubated for 60 mins by fluorescence-based assay
Tubulin (Sus scrofa) [2] = target: T1, Tubulin (Sus scrofa); assay: as §1
HUVEC [3] = assay: Inhibition of capillary tube formation in HUVEC assessed as reduction in tube-like structures formation at 20 nM incubated for 8 hrs by fluorescence microscopy based 3D-matrigel assay; assay type: functional; conditions: Homo sapiens
[4] = tested on: Non-small cell lung cancer cell line; assay: Antitumor activity against human NSCLC xenografted in Balb/c-nu mouse assessed as inhibition of tumor growth at 50 mg/kg, ip dosed every day for 21 consecutive days and measured every 3 days; assay type: functional; conditions: 72 h, read-out: TGI
[5] = tested on: Non-small cell lung cancer cell line; assay: Antitumor activity against human NSCLC xenografted in Balb/c-nu mouse assessed as inhibition of tumor growth at 12.5 mg/kg, ip dosed every day for 21 consecutive days and measured every 3 days; assay type: functional; conditions: 72 h, read-out: TGI
A549 [6] = assay: Induction of apoptosis in human A549 cells assessed as live cells level at 20 nM incubated for 24 hrs by Annexin V-FITC/PI staining based FACS flow cytometry (reference value: 96.83%); assay type: functional
NCI-H460 [7] = assay: Growth inhibition of human NCI-H460 cells incubated for 48 hrs by MTT assay; assay type: functional, cell-based; conditions: NCI-H460, 48 h
A549 [8] = assay: Induction of apoptosis in human A549 cells assessed as late apoptotic cells level at 40 nM incubated for 24 hrs by Annexin V-FITC/PI staining based FACS flow cytometry (reference value: 2.15%); assay type: functional
A549 [9] = assay: Inhibition of colony formation in human A549 cells at 10 nM incubated for 9 days by crystal violet staining based assay; assay type: functional; conditions: A549, 216 h
A549 [10] = assay: Induction of apoptosis in human A549 cells assessed as induction of cytoplasmic membrane blebbing at 40 nM incubated for 24 hrs microscopy; assay type: functional, cell-based
A549 [11] = assay: Cytotoxicity against human A549 cells assessed as reduction in cell viability at 5 nM to 80 nM incubated for 24 hrs by trypan blue staining assay; assay type: cell-based; conditions: a549, 24 h, 0.005 µM
[12] = tested on: Non-small cell lung cancer cell line; assay: Antitumor activity against human NSCLC xenografted in Balb/c-nu mouse assessed as induction of delay in tumor volume increase at 50 mg/kg, ip dosed every day for 21 consecutive days and measured every 3 days; assay type: functional, organism-based
HepG2 = assay: Growth inhibition of human HepG2 cells incubated for 72 hrs by MTT assay; assay type: functional, cell-based; conditions: HepG2, 72 h
A549 [13] = assay: Induction of apoptosis in human A549 cells assessed as live cells level at 10 nM incubated for 24 hrs by Annexin V-FITC/PI staining based FACS flow cytometry (reference value: 96.83%); assay type: functional
NCI-H460 [14] = assay: Inhibition of colony formation in human NCI-H460 cells at 10 nM incubated for 9 days by crystal violet staining based assay; assay type: functional; conditions: NCI-H460, 216 h
[15] = Toxicity in human NSCLC xenografted Balb/c-nu mouse assessed as effect on body weight at 12.5 mg/kg, ip dosed every day for 21 consecutive days; assay type: organism-based; conditions: in vivo
A549 [16] = assay: Increase in cyclin B1 expression in human A549 cells incubated for 24 hrs by Western blotting; assay type: functional, cell-based
A549 [17] = assay: Induction of apoptosis in human A549 cells assessed as induction of nucleus fragmentation at 40 nM incubated for 24 hrs microscopy; assay type: functional, cell-based
A549 [18] = assay: Induction of apoptosis in human A549 cells assessed as increase in PARP cleavage level incubated for 24 hrs by Western blotting; assay type: functional, cell-based
MCF7 = assay: cells; conditions: Homo sapiens, MCF7, 72 h
NCI-H460 [19] = assay: Inhibition of colony formation in human NCI-H460 cells incubated for 9 days by crystal violet staining based assay; assay type: functional, cell-based
PC-3 = assay: Growth inhibition of human PC3 cells incubated for 72 hrs by MTT assay; assay type: functional, cell-based; conditions: PC-3, 72 h
A549 [20] = assay: Induction of apoptosis in human A549 cells assessed as induction of cell shrinkage at 40 nM incubated for 24 hrs microscopy; assay type: functional, cell-based
[21] = tested on: Non-small cell lung cancer cell line; assay: Antitumor activity against human NSCLC xenografted in Balb/c-nu mouse assessed as induction of delay in tumor volume increase at 12.5 mg/kg, ip dosed every day for 21 consecutive days and measured every 3 days; assay type: functional, organism-based
A549 [22] = assay: Induction of cell cycle arrest in human A549 cells assessed as accumulation at G2/M phase at 40 nM incubated for 24 hrs by propidium iodide staining based FACS flow cytometry; assay type: functional
HUVEC [23] = assay: Inhibition of capillary tube formation in HUVEC assessed as reduction in tube-like structures formation at 10 nM incubated for 8 hrs by fluorescence microscopy based 3D-matrigel assay; assay type: functional; conditions: Homo sapiens
A549 [24] = assay: Induction of cell cycle arrest in human A549 cells assessed as accumulation at G2/M phase incubated for 24 hrs by propidium iodide staining based FACS flow cytometry; assay type: functional
[25] = Toxicity in human NSCLC xenografted Balb/c-nu mouse assessed as effect on body weight at 50 mg/kg, ip dosed every day for 21 consecutive days; assay type: organism-based; conditions: in vivo
A549 [26] = assay: Induction of apoptosis in human A549 cells assessed as late apoptotic cells level at 20 nM incubated for 24 hrs by Annexin V-FITC/PI staining based FACS flow cytometry (reference value: 2.15%); assay type: functional
HeLa = assay: Growth inhibition of human HeLa cells incubated for 72 hrs by MTT assay; assay type: functional, cell-based
A549 [27] = assay: Induction of apoptosis in human A549 cells assessed as early apoptotic cells level at 40 nM incubated for 24 hrs by Annexin V-FITC/PI staining based FACS flow cytometry (reference value: 0.65%); assay type: functional
A549 [28] = assay: Induction of apoptosis in human A549 cells assessed as necrotic cells level at 20 nM incubated for 24 hrs by Annexin V-FITC/PI staining based FACS flow cytometry (reference value: 0.37%); assay type: functional
A549 [29] = assay: Induction of apoptosis in human A549 cells assessed as early apoptotic cells level at 10 nM incubated for 24 hrs by Annexin V-FITC/PI staining based FACS flow cytometry (reference value: 0.65%); assay type: functional
HUVEC [30] = assay: Inhibition of capillary tube formation in HUVEC assessed as reduction in tube-like structures formation incubated for 8 hrs by fluorescence microscopy based 3D-matrigel assay; assay type: functional, cell-based; conditions: Homo sapiens
A549 [31] = assay: Induction of apoptosis in human A549 cells assessed as live cells level at 40 nM incubated for 24 hrs by Annexin V-FITC/PI staining based FACS flow cytometry (reference value: 96.83%); assay type: functional
A549 [32] = assay: Growth inhibition of human A549 cells incubated for 48 hrs by MTT assay; assay type: functional, cell-based; conditions: A549, 48 h
A549 [33] = assay: Inhibition of colony formation in human A549 cells incubated for 9 days by crystal violet staining based assay; assay type: functional, cell-based
[34] = target: Tubulin alpha (Homo sapiens) (UniProt P0DPH7+P68366+Q71U36+P68363+Q9BQE3+Q6PEY2+A6NHL2+Q9NY65); assay: Inhibition of alpha tubulin polymerization in human A549 cells assessed as induction of microtubule network dis-organization at 40 nM by Immunofluorescent staining based fluorescence microscopy; assay type: cell-based

Structure (SMILES): CCOc1cccc(Nc2nn(C)c3c2Cc2cc(OCC)c(OCC(N)=O)cc2-3)c1
- inhibition (Tubulin (Sus scrofa) [1]): 67%
- IC50 (Tubulin): 4.62 µM
- inhibition (Tubulin (Sus scrofa) [2]): Dose-dependent effect
- inhibition at 0.02 µM (HUVEC [3]): 58%
- inhibition in vivo at 50 mg/kg [4]: 59.1%
- inhibition in vivo at 12.5 mg/kg [5]: 33.8%
- Activity (A549 [6]): 90.81%
- IC50 (NCI-H460 [7]): 0.0373 µM
- Activity (A549 [8]): 5.47%
- inhibition at 0.01 µM (A549 [9]): 91%
- Activity (A549 [10]): Active
- Activity (A549 [11]): Non-Toxic
- Activity [12]: Active
- IC50 (HepG2): 0.026 µM
- Activity (A549 [13]): 95.66%
- inhibition at 0.01 µM (NCI-H460 [14]): 97.3%
- Activity [15]: Non-Toxic
- Activity (A549 [16]): Dose-dependent effect
- Activity (A549 [17]): Active
- Activity (A549 [18]): Dose-dependent effect
- IC50 (MCF7): 0.0323 µM
- inhibition (NCI-H460 [19]): Dose-dependent effect
- IC50 (PC-3): 0.019 µM
- Activity (A549 [20]): Active
- Activity [21]: Active
- Activity (A549 [22]): 68.1%
- inhibition at 0.01 µM (HUVEC [23]): 39%
- Activity (A549 [24]): Dose-dependent effect
- Activity [25]: Non-Toxic
- Activity (A549 [26]): 4.57%
- IC50 (HeLa): 0.0074 µM
- Activity (A549 [27]): 9.06%
- Activity (A549 [28]): 0.84%
- Activity (A549 [29]): 1.01%
- inhibition (HUVEC [30]): Dose-dependent effect
- Activity (A549 [31]): 84.24%
- IC50 (A549 [32]): 0.0415 µM
- inhibition (A549 [33]): Dose-dependent effect
- inhibition [34]: Active
